For the test, the system named is MV-4-11 cells. Kind of test: Gene expression microarray analysis (Affymetrix PrimeView) and GSEA. The test is classed as cell-based, human. Further details: RFU PODN (11730768_x_at) / Fold change /veh PODN (11730768_x_at) / RFU LINC00158 (11744669_a_at) / Fold change /veh LINC00158 (11744669_a_at) / RFU DUSP10 (11751237_a_at) / Fold change /veh DUSP10 (11751237_a_at) / RFU ID3 (11757404_x_at) / Fold change /veh ID3 (11757404_x_at) / RFU PLEKHG5 (11737974_s_at) / Fold change /veh PLEKHG5 (11737974_s_at) / RFU LRRC4B (11730491_at) / Fold change /veh LRRC4B (11730491_at) / RFU GIMAP4 (11747438_a_at) / Fold change /veh GIMAP4 (11747438_a_at) / RFU KRT8 (11758183_x_at) / Fold change /veh KRT8 (11758183_x_at) / RFU CNN1 (11734310_a_at) / Fold change /veh CNN1 (11734310_a_at) / RFU VPS37D (11726825_at) / Fold change /veh VPS37D (11726825_at) / RFU C10orf10 (11716522_x_at) / Fold change /veh C10orf10 (11716522_x_at) / RFU KIR2DL2 /// KIR2DL4 /// KIR2DL5A /// KIR2DL5B /// KIR2DS1 /// KIR2DS2 /// KIR2DS3 /// KIR2DS4 /// KIR3DL3 /// KIR3DL3 /// KIR3DS1 (11738374_at) / Fold change /veh KIR2DL2 /// KIR2DL4 /// KIR2DL5A /// KIR2DL5B /// KIR2DS1 /// KIR2DS2 /// KIR2DS3 /// KIR2DS4 /// KIR3DL3 /// KIR3DL3 /// KIR3DS1 (11738374_at) / RFU C1QL1 (11718748_at) / Fold change /veh C1QL1 (11718748_at) / RFU TMPRSS4 (11747572_a_at) / Fold change /veh TMPRSS4 (11747572_a_at) / RFU HAMP (11756126_x_at) / Fold change /veh HAMP (11756126_x_at) / RFU RNFT2 (11725882_a_at) / Fold change /veh RNFT2 (11725882_a_at) / RFU NR4A2 (11747474_a_at) / Fold change /veh NR4A2 (11747474_a_at) / RFU ABCC12 (11746883_a_at) / Fold change /veh ABCC12 (11746883_a_at) / RFU TMEM136 (11760407_x_at) / Fold change /veh TMEM136 (11760407_x_at) / RFU CLDN22 /// WWC2 (11732394_at) / Fold change /veh CLDN22 /// WWC2 (11732394_at) / RFU HLA-DPB1 (11760878_x_at) / Fold change /veh HLA-DPB1 (11760878_x_at) / RFU SPINT1 (11716480_a_at) / Fold change /veh SPINT1 (11716480_a_at) / RFU GAP43 (11754022_s_at) / Fold change /veh GAP43 (11754022_s_at) / RFU A4GNT (11735810_at) / Fold change /veh A4GNT (11735810_at) / RFU PRB3 (11715151_x_at) / Fold change /veh PRB3 (11715151_x_at) / RFU TUBB4B (11761932_at) / Fold change /veh TUBB4B (11761932_at) / RFU CAPN14 (11732068_a_at) / Fold change /veh CAPN14 (11732068_a_at) / RFU TMCC2 (11721928_a_at) / Fold change /veh TMCC2 (11721928_a_at) / RFU IRGQ (11745062_a_at) / Fold change /veh IRGQ (11745062_a_at) / RFU FAM174B (11720279_a_at) / Fold change /veh FAM174B (11720279_a_at) / RFU TMPRSS4 (11748680_a_at) / Fold change /veh TMPRSS4 (11748680_a_at) / RFU FAM212B (11763350_a_at) / Fold change /veh FAM212B (11763350_a_at) / RFU PLEKHG5 (11743358_a_at) / Fold change /veh PLEKHG5 (11743358_a_at) / RFU ZSCAN30 (11745921_a_at) / Fold change /veh ZSCAN30 (11745921_a_at) / RFU CMKLR1 (11741424_a_at) / Fold change /veh CMKLR1 (11741424_a_at) / RFU LOC101060620 /// MAPK8IP1 (11723275_at) / Fold change /veh LOC101060620 /// MAPK8IP1 (11723275_at) / RFU SPTSSB (11747773_x_at) / Fold change /veh SPTSSB (11747773_x_at) / RFU PRSS12 (11739890_at) / Fold change /veh PRSS12 (11739890_at) / RFU BIN1 (11741810_x_at) / Fold change /veh BIN1 (11741810_x_at) / RFU WNT11 (11732464_a_at) / Fold change /veh WNT11 (11732464_a_at) / RFU C10orf10 (11716521_a_at) / Fold change /veh C10orf10 (11716521_a_at) / RFU C5orf56 (11738089_at) / Fold change /veh C5orf56 (11738089_at) / RFU CYB561 (11721691_x_at) / Fold change /veh CYB561 (11721691_x_at) / RFU ANKRD19P (11752326_a_at) / Fold change /veh ANKRD19P (11752326_a_at) / RFU OR2T12 /// OR2T33 /// OR2T8 (11738714_s_at) / Fold change /veh OR2T12 /// OR2T33 /// OR2T8 (11738714_s_at) / RFU VCAN (11748164_a_at) / Fold change /veh VCAN (11748164_a_at) / RFU JSRP1 (11732532_at) / Fold change /veh JSRP1 (11732532_at) / RFU KRTAP10-11 (11738290_x_at) / Fold change /veh KRTAP10-11 (11738290_x_at) / RFU MYO3A (11730013_a_at) / Fold change /veh MYO3A (11730013_a_at) / RFU EBF3 (11725865_a_at) / Fold change /veh EBF3 (11725865_a_at) / RFU CAMK2N1 (11719241_x_at) / Fold change /veh CAMK2N1 (11719241_x_at) / RFU C5orf56 (11738088_a_at) / Fold change /veh C5orf56 (11738088_a_at) / RFU OLFML3 (11715873_a_at) / Fold change /veh OLFML3 (11715873_a_at) / RFU LOC100653217 /// NTM (11731650_a_at) / Fold change /veh LOC100653217 /// NTM (11731650_a_at) / RFU MAPK11 (11762145_a_at) / Fold change /veh MAPK11 (11762145_a_at) / RFU FIZ1 (11724087_x_at) / Fold change /veh FIZ1 (11724087_x_at) / RFU OASL (11726364_x_at) / Fold change /veh OASL (11726364_x_at) / RFU SOX15 (11748057_x_at) / Fold change /veh SOX15 (11748057_x_at) / RFU CD79A (11719716_a_at) / Fold change /veh CD79A (11719716_a_at) / RFU HIST1H1D (11736915_at) / Fold change /veh HIST1H1D (11736915_at) / RFU CASKIN2 (11723855_a_at) / Fold change /veh CASKIN2 (11723855_a_at) / RFU LOC730098 (11760151_x_at) / Fold change /veh LOC730098 (11760151_x_at) / RFU OR4N2 (11742367_at) / Fold change /veh OR4N2 (11742367_at) / RFU PRRT2 (11749266_a_at) / Fold change /veh PRRT2 (11749266_a_at) / RFU SNX32 (11753110_a_at) / Fold change /veh SNX32 (11753110_a_at) / RFU CDHR5 (11726645_a_at) / Fold change /veh CDHR5 (11726645_a_at) / RFU RCAN1 (11760418_a_at) / Fold change /veh RCAN1 (11760418_a_at) / RFU FAM167A (11723789_a_at) / Fold change /veh FAM167A (11723789_a_at) / RFU FAM26E (11764081_at) / Fold change /veh FAM26E (11764081_at) / RFU ISYNA1 (11749810_s_at) / Fold change /veh ISYNA1 (11749810_s_at) / RFU ACY1 (11761880_at) / Fold change /veh ACY1 (11761880_at) / RFU 11764098_at / Fold change /veh 11764098_at / RFU SAMD14 (11745864_x_at) / Fold change /veh SAMD14 (11745864_x_at) / RFU NPB (11741838_a_at) / Fold change /veh NPB (11741838_a_at) / RFU TMPRSS6 (11731388_a_at) / Fold change /veh TMPRSS6 (11731388_a_at) / RFU KRTAP10-2 (11738614_at) / Fold change /veh KRTAP10-2 (11738614_at) / RFU ARHGAP8 /// PRR5-ARHGAP8 (11727945_x_at) / Fold change /veh ARHGAP8 /// PRR5-ARHGAP8 (11727945_x_at) / RFU KRTAP5-7 /// NADSYN1 (11734609_at) / Fold change /veh KRTAP5-7 /// NADSYN1 (11734609_at) / RFU RASL12 (11751679_a_at) / Fold change /veh RASL12 (11751679_a_at) / RFU CDKN2B (11736163_a_at) / Fold change /veh CDKN2B (11736163_a_at) / RFU PRF1 (11729649_at) / Fold change /veh PRF1 (11729649_at) / RFU, ZNF638 /// ZNF638-IT1 / Fold change vs veh, ZNF638 /// ZNF638-IT1 / RFU, PANK3 / Fold change vs veh, PANK3 / RFU, SH3YL1 / Fold change vs veh, SH3YL1 / RFU, ZEB2 / Fold change vs veh, ZEB2 / RFU, NRIP1 / Fold change vs veh, NRIP1 / RFU, PTTG1IP / Fold change vs veh, PTTG1IP / RFU, CAPN2 / Fold change vs veh, CAPN2 / RFU, MED14 / Fold change vs veh, MED14 / RFU, SNORA58 / Fold change vs veh, SNORA58 / RFU, C1orf63 / Fold change vs veh, C1orf63 / RFU, LRRFIP1 / Fold change vs veh, LRRFIP1 / RFU, NDUFAF7 / Fold change vs veh, NDUFAF7 / RFU, SLC12A2 / Fold change vs veh, SLC12A2 / RFU, IBTK / Fold change vs veh, IBTK / RFU, ESF1 / Fold change vs veh, ESF1 / Fold change vs veh, TMEM50B / RFU, TAOK1 / Fold change vs veh, TAOK1 / RFU, ACBD3 / Fold change vs veh, ACBD3 / RFU, TMA16 / Fold change vs veh, TMA16 / RFU, RWDD3 / Fold change vs veh, RWDD3 / RFU, BCAT1 / Fold change vs veh, BCAT1 / RFU, EDEM3 / Fold change vs veh, EDEM3 / RFU, TMEM33 / Fold change vs veh, TMEM33 / RFU, WDR75 / Fold change vs veh, WDR75 / RFU, AHCTF1 / Fold change vs veh, AHCTF1 / RFU, TFRC / Fold change vs veh, TFRC / RFU, ZDHHC17 / Fold change vs veh, ZDHHC17 / RFU, NOM1 / Fold change vs veh, NOM1 / RFU, ARL8B / Fold change vs veh, ARL8B / RFU, ZBTB11 / Fold change vs veh, ZBTB11 / RFU, TAMM41 / Fold change vs veh, TAMM41 / RFU, KIAA1704 /// LOC100996395 / Fold change vs veh, KIAA1704 /// LOC100996395 / RFU, ING1 / Fold change vs veh, ING1 / RFU, TRMT61B / Fold change vs veh, TRMT61B / RFU, FUBP3 / Fold change vs veh, FUBP3 / RFU, TP53 / Fold change vs veh, TP53 / RFU, TNKS2 / Fold change vs veh, TNKS2 / RFU, ZFP14 / Fold change vs veh, ZFP14 / RFU, ACTR2 / Fold change vs veh, ACTR2 / RFU, PPP3R1 / Fold change vs veh, PPP3R1 / RFU, PIK3R1 / Fold change vs veh, PIK3R1 / RFU, HNRNPA1 / Fold change vs veh, HNRNPA1 / RFU, RNF170 / Fold change vs veh, RNF170 / RFU, ZNF28 / Fold change vs veh, ZNF28 / RFU, RNGTT / Fold change vs veh, RNGTT / RFU, OGT / Fold change vs veh, OGT / RFU, BRD1 / Fold change vs veh, BRD1 / RFU, MARS / Fold change vs veh, MARS / RFU, ZNF655 / Fold change vs veh, ZNF655 / RFU, FAHD1 / Fold change vs veh, FAHD1 / RFU, BDP1 / Fold change vs veh, BDP1 / RFU, LRRCC1 / Fold change vs veh, LRRCC1 / RFU, ARID1A / Fold change vs veh, ARID1A / RFU, ZNF146 / Fold change vs veh, ZNF146 / RFU, ZNF330 / Fold change vs veh, ZNF330 / RFU, GPN3 / Fold change vs veh, GPN3 / RFU, C9orf123 / Fold change vs veh, C9orf123 / RFU, N4BP2L2 / Fold change vs veh, N4BP2L2 / RFU, ARFIP1 / Fold change vs veh, ARFIP1 / RFU, FAM179B / Fold change vs veh, FAM179B / RFU, BCL10 / Fold change vs veh, BCL10 / RFU, UHRF1BP1L / Fold change vs veh, UHRF1BP1L / RFU, BET1 / Fold change vs veh, BET1 / RFU, CNOT2 / Fold change vs veh, CNOT2 / RFU, ZNF268 / Fold change vs veh, ZNF268 / Fold change vs veh, ZNF507 / RFU, DGCR2 / Fold change vs veh, DGCR2 / RFU, WDSUB1 / Fold change vs veh, WDSUB1 / Fold change vs veh, HSP90B1 /// MIR3652 / RFU, ADSS / Fold change vs veh, ADSS / RFU, GK / Fold change vs veh, GK / RFU, ZNF148 / Fold change vs veh, ZNF148 / RFU, TAF9 / Fold change vs veh, TAF9 / RFU, SLC1A5 / Fold change vs veh, SLC1A5 / RFU, SLMO2 / Fold change vs veh, SLMO2 / RFU, ABCC4 / Fold change vs veh, ABCC4 / RFU, LOC101060439 /// RAP1B / Fold change vs veh, LOC101060439 /// RAP1B / RFU, RFX7 / Fold change vs veh, RFX7 / RFU, GTPBP10 / Fold change vs veh, GTPBP10 / RFU, CNEP1R1 / Fold change vs veh, CNEP1R1 / RFU, BIVM-ERCC5 /// ERCC5 / Fold change vs veh, BIVM-ERCC5 /// ERCC5 / RFU, ILF3 / Fold change vs veh, ILF3 / RFU 11762660_at / Fold change /veh 11762660_at / RFU VCAN (11757783_s_at) / Fold change /veh VCAN (11757783_s_at) / RFU DDX43 (11728927_at) / Fold change /veh DDX43 (11728927_at) / RFU KRT8 (11758188_x_at) / Fold change /veh KRT8 (11758188_x_at) / RFU NKD1 (11759106_at) / Fold change /veh NKD1 (11759106_at) / RFU SRD5A1 (11742802_a_at) / Fold change /veh SRD5A1 (11742802_a_at) / RFU TPSAB1 /// TPSB2 (11721975_s_at) / Fold change /veh TPSAB1 /// TPSB2 (11721975_s_at) / RFU GSTM3 (11746129_a_at) / Fold change /veh GSTM3 (11746129_a_at) / RFU IL23R (11737362_x_at) / Fold change /veh IL23R (11737362_x_at) / RFU TMEM51 (11727254_a_at) / Fold change /veh TMEM51 (11727254_a_at) / RFU PIWIL2 (11732686_x_at) / Fold change /veh PIWIL2 (11732686_x_at) / RFU ORM1 (11744905_x_at) / Fold change /veh ORM1 (11744905_x_at) / RFU CCDC152 (11743942_at) / Fold change /veh CCDC152 (11743942_at) / RFU ECM1 (11717891_a_at) / Fold change /veh ECM1 (11717891_a_at) / RFU IL23R (11748794_a_at) / Fold change /veh IL23R (11748794_a_at) / RFU TNFAIP8L3 (11732012_x_at) / Fold change /veh TNFAIP8L3 (11732012_x_at) / RFU MBOAT4 (11741988_at) / Fold change /veh MBOAT4 (11741988_at) / RFU 11764193_at / Fold change /veh 11764193_at / RFU TMEM53 (11763286_at) / Fold change /veh TMEM53 (11763286_at) / RFU MAGEB2 (11727129_at) / Fold change /veh MAGEB2 (11727129_at) / RFU TMEM200A (11744735_a_at) / Fold change /veh TMEM200A (11744735_a_at) / RFU CCDC152 (11751479_a_at) / Fold change /veh CCDC152 (11751479_a_at) / RFU FAM211A (11726209_a_at) / Fold change /veh FAM211A (11726209_a_at) / RFU RGS16 (11746705_a_at) / Fold change /veh RGS16 (11746705_a_at) / RFU VCAN (11755009_s_at) / Fold change /veh VCAN (11755009_s_at) / RFU RHOB (11743442_s_at) / Fold change /veh RHOB (11743442_s_at) / RFU RGS16 (11720943_a_at) / Fold change /veh RGS16 (11720943_a_at) / RFU RGS16 (11720944_at) / Fold change /veh RGS16 (11720944_at) / RFU, VPS4B / Fold change vs veh, VPS4B / RFU, CREB1 / Fold change vs veh, CREB1 / RFU, DNAJC13 / Fold change vs veh, DNAJC13 / RFU, GNAQ / Fold change vs veh, GNAQ / RFU, CDK5R1 / Fold change vs veh, CDK5R1 / RFU, ZRANB3 / Fold change vs veh, ZRANB3 / RFU, CUL4A / Fold change vs veh, CUL4A / RFU, CCNY / Fold change vs veh, CCNY / RFU, UFL1 / Fold change vs veh, UFL1 / RFU, COG3 / Fold change vs veh, COG3 / RFU, DIAPH2 / Fold change vs veh, DIAPH2 / RFU, SKA2 / Fold change vs veh, SKA2 / RFU, AFF3 / Fold change vs veh, AFF3 / RFU, LMF1 / Fold change vs veh, LMF1 / RFU, IPO11 / Fold change vs veh, IPO11 / RFU, DFFB / Fold change vs veh, DFFB / RFU, FOXP1 / Fold change vs veh, FOXP1 / RFU, CARD8 / Fold change vs veh, CARD8 / RFU, STRN3 / Fold change vs veh, STRN3 / RFU, ADK / Fold change vs veh, ADK / RFU, RASSF2 / Fold change vs veh, RASSF2 / RFU, WIPF1 / Fold change vs veh, WIPF1 / RFU, LARP1B / Fold change vs veh, LARP1B / RFU, RASA1 / Fold change vs veh, RASA1 / RFU, RB1 / Fold change vs veh, RB1 / RFU, PPFIA1 / Fold change vs veh, PPFIA1 / RFU, MAT2A / Fold change vs veh, MAT2A / RFU, CCT5 / Fold change vs veh, CCT5 / RFU, WDR92 / Fold change vs veh, WDR92 / RFU, CUX1 / Fold change vs veh, CUX1 / RFU, TTC7A / Fold change vs veh, TTC7A / RFU, TMEM135 / Fold change vs veh, TMEM135 / RFU, DEPTOR / Fold change vs veh, DEPTOR / RFU, CPM / Fold change vs veh, CPM / RFU, DNAJB6 / Fold change vs veh, DNAJB6 / RFU, CACNA2D3 / Fold change vs veh, CACNA2D3 / RFU, DTX4 / Fold change vs veh, DTX4 / RFU, TFCP2 / Fold change vs veh, TFCP2 / RFU, GMCL1 /// GMCL1P1 / Fold change vs veh, GMCL1 /// GMCL1P1 / RFU, AEBP2 / Fold change vs veh, AEBP2 / RFU, SNHG1 /// SNORD22 /// SNORD25 /// SNORD26 /// SNORD27 /// SNORD28 /// SNORD29 /// SNORD31 / Fold change vs veh, SNHG1 /// SNORD22 /// SNORD25 /// SNORD26 /// SNORD27 /// SNORD28 /// SNORD29 /// SNORD31 / Fold change (Aza/veh), C12orf56 (ProbeSet 11735607_a_at) / Fold change (ACY-1035/veh), C12orf56 (ProbeSet 11735607_a_at) / Fold change (Aza/veh), FGFR1OP (ProbeSet 11751329_s_at) / Fold change (ACY-1035/veh), FGFR1OP (ProbeSet 11751329_s_at) / Fold change (Aza/veh), VPS36 (ProbeSet 11739960_a_at) / Fold change (ACY-1035/veh), VPS36 (ProbeSet 11739960_a_at) / RFU SYPL1 (11715823_x_at) / Fold change /veh SYPL1 (11715823_x_at) / RFU IGFBP7 (11715501_s_at) / Fold change /veh IGFBP7 (11715501_s_at) / RFU REEP3 (11722064_at) / Fold change /veh REEP3 (11722064_at) / RFU IGLL1 (11728026_x_at) / Fold change /veh IGLL1 (11728026_x_at): dose or concentration left out as unconfirmed. The following applies: MV-4-11 cells, 48 hours.

The values that follow come from paper PMC5218480 (PLoS ONE, 2017).

On to `Nc1ncn([C@@H]2O[C@H](CO)[C@@H](O)[C@H]2O)c(=O)n1` [azacitidine], for which the “RFU C1QL1 (11718748_at)” value is 641.97 RFU.
